This is an account of results in article PMC4245125, “Pharmacological and Behavioral Characterization of D-473, an Orally Active Triple Reuptake Inhibitor Targeting Dopamine, Serotonin and Norepinephrine Transporters” (PLoS ONE, 2014).

Molecules are shown by their SMILES. Several values for one entry are separate records, joined by “and”; a condition that tells them apart may be missing. Identical values can stand only once.

Data set [1] is described as follows: Brain uptake after oral administration in rats. Type of data set: in vivo. As to conditions: rat, 25 mg/kg PO. How it is done: (§1) Sample preparation: Following oral administration of 25 mg/kg of D-473 and D-142 in male Sprague Dawley rats, the blood samples were collected at different time points over a period of 8 h for analysis. Concentrations of D-473 and D-142 in plasma were quantitated using a set of calibration standards prepared in blank matrix that were processed in parallel. Plasma concentration evaluation was carried out by the CRO, Absorption System, PA. Additionally, brain uptake studies of D-473 were carried out at three different time points (2, 4 and 6 h) following oral administration of 25 mg/kg D-473. Concentrations of D-473 in rat brain were quantitated using a set of calibration standards which were prepared in blank brain homogenate matrix on the day of analysis. The standard samples (5, 10, 25, 100, 500, 1000, and 2000 ng/mL) for calibration curve were prepared by spiking 45 µL of blank rat plasma with 5 µL of appropriate working dilution of D-473 in acetonitrile. The bioanalytical sample preparation for brain and plasma analysis followed by quantification of test compounds entailed the addition of 250 µL acetonitrile to every 50 µL of standard and analyte samples to precipitate tissue plasma proteins and tissue macromolecules. These mixtures were then vortexed for 15 min at 1400 rpm. The suspensions were then clarified by centrifugation (18000 g, 10 min at 4°C), and each 150 µL of the resulting supernatant was mixed well with 50 µL 0.1% formic acid in 50/50 (v/v) ACN/water solution for about 10 sec. The mixtures were again centrifuged (18000 g, 10 min at 4°C) before 100 µL of clear supernatant were transferred to auto sampler vials for LC-MS/MS analysis.
The analysis of brain samples was performed using Waters (Milford, MA, USA) Acquity UPLC instrument with a triple quadrupole (TQD) MS analyzer. The LC-MS/MS detection was performed using a positive Multiple Reaction Monitoring (MRM) method by monitoring the ion transition of D-473 from m/z 440.39 → 121.03. The MS/MS conditions include capillary voltage, 2.92 kV, cone voltage, 26.0 V; source temperature, 150°C; desolvation temperature, 350°C; desolvation gas flow, 500 L/hr; and collision energy, 33 eV. The MS control and data acquisition were collected using the Waters MassLynx software v4.1. Chromatographic conditions were achieved using a reverse phase C-18 ethylene bridged hybrid column (BEH C18) (2.1×100 mm, 1.7 µM). 5 µL of sample solutions were injected and samples were eluted using 0.1% formic acid in water (solvent A) and 0.1% formic acid in ACN (solvent B) mixture with a flow rate of 0.2 mL/min. Gradient elution of the mobile phase was 90% A to 5% A from 0 to 1 min, 5% A, 95% B from 1 to 3 min, and 5% A to 90% A from 3 to 5 min.

For a further data set, the target named is T1, Alpha1A (Homo sapiens, UniProt P35348).
T1 construct: purchased NIMH PDSP
T1 sequence (P35348 whole entry): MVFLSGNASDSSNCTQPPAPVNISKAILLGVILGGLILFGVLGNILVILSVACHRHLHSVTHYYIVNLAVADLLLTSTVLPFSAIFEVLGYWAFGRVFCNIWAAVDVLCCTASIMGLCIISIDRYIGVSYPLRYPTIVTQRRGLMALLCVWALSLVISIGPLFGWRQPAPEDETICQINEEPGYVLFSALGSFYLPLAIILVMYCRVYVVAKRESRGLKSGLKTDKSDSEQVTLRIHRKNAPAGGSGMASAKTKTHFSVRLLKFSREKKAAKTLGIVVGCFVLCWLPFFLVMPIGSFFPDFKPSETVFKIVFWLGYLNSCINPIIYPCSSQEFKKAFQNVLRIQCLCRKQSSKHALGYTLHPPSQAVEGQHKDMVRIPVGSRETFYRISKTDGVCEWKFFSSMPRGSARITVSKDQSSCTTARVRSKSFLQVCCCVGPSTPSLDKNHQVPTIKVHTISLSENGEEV
Briefly: NIMH PDSP receptor binding, Alpha1A. The note with it: [3H]Prazosin, read-out: % Inhibition of Binding at 10 µM D-473.

The next data set has as its target T2, M4 (Homo sapiens, UniProt P08173).
T2 construct: purchased NIMH PDSP
Briefly: biochemical. The note with it: read-out: % Inhibition of Binding at 10 µM D-473.

In the next data set the target is hNET (Homo sapiens, UniProt P23975). Briefly: Inhibition of [3H]DA uptake by cloned human NET in HEK293 cells.
Chain of hNET (P23975 whole entry): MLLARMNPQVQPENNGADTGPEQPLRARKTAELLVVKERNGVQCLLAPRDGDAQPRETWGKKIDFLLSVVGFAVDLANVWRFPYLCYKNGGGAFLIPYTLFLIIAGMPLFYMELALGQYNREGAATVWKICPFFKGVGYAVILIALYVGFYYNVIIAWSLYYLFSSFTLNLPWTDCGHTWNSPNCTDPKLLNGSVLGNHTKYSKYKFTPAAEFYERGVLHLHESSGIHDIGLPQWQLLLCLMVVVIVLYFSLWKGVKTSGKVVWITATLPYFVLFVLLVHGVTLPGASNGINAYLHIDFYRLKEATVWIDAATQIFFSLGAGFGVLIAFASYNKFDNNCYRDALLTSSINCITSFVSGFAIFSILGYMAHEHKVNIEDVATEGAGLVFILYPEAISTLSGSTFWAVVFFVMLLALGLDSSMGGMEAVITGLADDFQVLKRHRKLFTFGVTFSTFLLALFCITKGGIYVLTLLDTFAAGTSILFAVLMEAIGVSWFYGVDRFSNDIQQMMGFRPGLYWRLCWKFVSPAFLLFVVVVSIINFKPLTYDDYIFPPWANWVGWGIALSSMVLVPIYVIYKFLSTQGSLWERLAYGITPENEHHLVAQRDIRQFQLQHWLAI
A short description of data set [2]: Plasma concentration after oral administration in rats. It is filed as in vivo. As to conditions: rat, male Sprague-Dawley rats, 25 mg/kg PO. As to the method:
as §1
The analysis of blood sample was carried out by the CRO Absorption system, PA. Briefly, the analysis was carried out by Waters Acquity UPLC equipped with PE Sciex API4000 mass spectrometer. Reverse phase Waters Acquity BEH Phenyl Column 1.7micron, 2.1×30 mm column was used for analysis. 5 µL of sample solutions were injected with a flow rate 1 mL/min and the samples were eluted with gradient elution using solvent A (10% buffer: 90% water) and solvent B (10% buffer: 90% acetonitrile). Buffer used was 40 mM Ammonium Formate Buffer, pH 3.5. Pharmacokinetic prarameters were estimated by a non-compartmental model using WinNonlin v5.2.1 software.

In a further data set the target is D1 (Homo sapiens, UniProt P21728). In words: NIMH PDSP receptor binding, D1.
Chain of D1 (P21728 whole entry): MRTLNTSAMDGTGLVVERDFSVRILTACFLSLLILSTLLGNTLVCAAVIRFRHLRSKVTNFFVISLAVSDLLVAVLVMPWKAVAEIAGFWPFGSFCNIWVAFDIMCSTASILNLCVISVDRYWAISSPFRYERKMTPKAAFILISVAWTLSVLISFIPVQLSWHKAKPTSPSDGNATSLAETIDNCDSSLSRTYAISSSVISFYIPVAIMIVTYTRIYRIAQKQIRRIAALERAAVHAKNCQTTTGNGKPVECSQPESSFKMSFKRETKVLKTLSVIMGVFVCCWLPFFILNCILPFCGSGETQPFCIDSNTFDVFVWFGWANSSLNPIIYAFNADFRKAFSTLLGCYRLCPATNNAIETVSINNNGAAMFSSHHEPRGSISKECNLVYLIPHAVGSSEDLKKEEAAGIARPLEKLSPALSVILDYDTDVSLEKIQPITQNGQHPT
Another data set has as its target T3, H1 (Homo sapiens, UniProt P35367).
T3 construct: purchased NIMH PDSP
Briefly: NIMH PDSP receptor binding, H1. As to conditions: [3H]Pyrilamine, read-out: % Inhibition of Binding at 10 µM D-473.

The target in another data set is T4, Beta1 (Homo sapiens, UniProt P08588).
T4 construct: purchased NIMH PDSP
Briefly: NIMH PDSP receptor binding, Beta1. The note with it: [125I]Iodopindolol, read-out: % Inhibition of Binding at 10 µM D-473.

In another data set the target is 5HT2b (Homo sapiens, UniProt P41595). In words: NIMH PDSP receptor binding, 5HT2b. As to conditions: [3H]LSD.
Chain of 5HT2b (P41595 whole entry): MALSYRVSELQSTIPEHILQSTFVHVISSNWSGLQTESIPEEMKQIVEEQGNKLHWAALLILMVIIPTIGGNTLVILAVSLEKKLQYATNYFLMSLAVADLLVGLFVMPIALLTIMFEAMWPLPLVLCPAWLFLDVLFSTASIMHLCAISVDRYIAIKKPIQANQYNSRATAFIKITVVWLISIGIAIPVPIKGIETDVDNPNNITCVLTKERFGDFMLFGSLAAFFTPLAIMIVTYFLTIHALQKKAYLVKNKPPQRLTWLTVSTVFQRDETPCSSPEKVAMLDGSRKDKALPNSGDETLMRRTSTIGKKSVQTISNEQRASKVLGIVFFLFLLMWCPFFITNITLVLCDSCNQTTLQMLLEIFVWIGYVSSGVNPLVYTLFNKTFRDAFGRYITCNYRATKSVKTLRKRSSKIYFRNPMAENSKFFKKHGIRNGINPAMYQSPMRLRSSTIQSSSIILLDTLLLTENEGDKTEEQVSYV
The next data set concerns the target T5, 5HT2a (Homo sapiens, UniProt P28223).
T5 construct: purchased NIMH PDSP
In words: NIMH PDSP receptor binding, 5HT2a. The note with it: [3H]ketanserin, read-out: % Inhibition of Binding at 10 µM D-473.

A further data set deals with T6, M1 (Homo sapiens, UniProt P11229).
T6 construct: purchased NIMH PDSP
T6 sequence (P11229 whole entry): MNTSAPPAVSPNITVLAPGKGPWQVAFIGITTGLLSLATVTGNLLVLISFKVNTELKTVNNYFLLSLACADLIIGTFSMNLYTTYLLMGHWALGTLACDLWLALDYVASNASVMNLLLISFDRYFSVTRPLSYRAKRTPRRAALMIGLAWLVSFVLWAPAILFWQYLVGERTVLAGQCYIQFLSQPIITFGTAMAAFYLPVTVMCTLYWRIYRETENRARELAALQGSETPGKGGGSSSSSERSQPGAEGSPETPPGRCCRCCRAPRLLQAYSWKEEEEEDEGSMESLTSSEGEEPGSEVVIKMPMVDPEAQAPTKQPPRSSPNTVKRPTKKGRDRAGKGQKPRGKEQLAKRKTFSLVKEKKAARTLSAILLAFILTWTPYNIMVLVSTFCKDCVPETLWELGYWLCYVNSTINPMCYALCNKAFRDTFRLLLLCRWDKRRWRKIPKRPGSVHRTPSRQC
In words: biochemical. The note with it: read-out: % Inhibition of Binding at 10 µM D-473.

A further data set addresses T7, 5HT5a (Homo sapiens, UniProt P47898).
T7 construct: purchased NIMH PDSP
Briefly: NIMH PDSP receptor binding, 5HT5a. As to conditions: [3H]LSD, read-out: % Inhibition of Binding at 10 µM D-473.

The target in the next data set is T8, Alpha1B (Homo sapiens, UniProt P35368).
T8 construct: purchased NIMH PDSP
T8 sequence (P35368 whole entry): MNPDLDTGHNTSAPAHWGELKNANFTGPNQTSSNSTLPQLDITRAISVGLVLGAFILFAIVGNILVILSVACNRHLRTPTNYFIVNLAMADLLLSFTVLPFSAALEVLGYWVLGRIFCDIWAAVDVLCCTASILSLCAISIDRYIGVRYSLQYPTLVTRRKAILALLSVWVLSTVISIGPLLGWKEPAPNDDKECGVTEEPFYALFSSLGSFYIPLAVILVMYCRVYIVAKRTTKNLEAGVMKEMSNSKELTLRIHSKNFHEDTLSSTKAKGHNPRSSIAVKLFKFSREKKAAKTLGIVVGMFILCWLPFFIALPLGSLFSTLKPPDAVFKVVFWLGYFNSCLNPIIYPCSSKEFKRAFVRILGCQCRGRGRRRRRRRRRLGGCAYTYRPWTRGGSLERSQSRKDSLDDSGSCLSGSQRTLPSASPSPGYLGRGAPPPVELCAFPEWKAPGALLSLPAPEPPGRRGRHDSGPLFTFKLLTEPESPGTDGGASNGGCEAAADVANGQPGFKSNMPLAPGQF
Briefly: NIMH PDSP receptor binding, Alpha1B. The note with it: [3H]Prazosin, read-out: % Inhibition of Binding at 10 µM D-473.

T7 sequence (P47898 whole entry): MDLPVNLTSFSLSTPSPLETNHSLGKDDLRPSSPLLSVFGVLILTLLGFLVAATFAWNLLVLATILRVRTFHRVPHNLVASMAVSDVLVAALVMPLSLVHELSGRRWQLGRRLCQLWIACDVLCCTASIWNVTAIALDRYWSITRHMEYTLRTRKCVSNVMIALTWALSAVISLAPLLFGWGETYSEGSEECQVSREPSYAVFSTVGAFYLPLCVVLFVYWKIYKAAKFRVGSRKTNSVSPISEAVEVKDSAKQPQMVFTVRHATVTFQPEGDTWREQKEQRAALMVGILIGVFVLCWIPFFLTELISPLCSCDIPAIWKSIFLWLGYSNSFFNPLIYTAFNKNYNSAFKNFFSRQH
T5 sequence (P28223 whole entry): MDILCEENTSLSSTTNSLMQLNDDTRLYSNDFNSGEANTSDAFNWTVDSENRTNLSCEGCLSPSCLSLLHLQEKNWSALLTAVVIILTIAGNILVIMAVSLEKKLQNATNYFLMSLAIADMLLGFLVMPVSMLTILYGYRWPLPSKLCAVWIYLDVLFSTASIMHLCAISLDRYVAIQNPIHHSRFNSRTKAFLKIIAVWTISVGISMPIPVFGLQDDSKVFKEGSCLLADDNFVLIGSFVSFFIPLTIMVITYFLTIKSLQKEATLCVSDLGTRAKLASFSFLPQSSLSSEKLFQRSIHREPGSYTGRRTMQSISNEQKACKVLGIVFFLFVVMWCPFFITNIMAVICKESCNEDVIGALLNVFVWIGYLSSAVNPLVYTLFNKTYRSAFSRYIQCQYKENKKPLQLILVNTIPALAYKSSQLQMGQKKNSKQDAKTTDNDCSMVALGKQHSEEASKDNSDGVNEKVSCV
T3 sequence (P35367 whole entry): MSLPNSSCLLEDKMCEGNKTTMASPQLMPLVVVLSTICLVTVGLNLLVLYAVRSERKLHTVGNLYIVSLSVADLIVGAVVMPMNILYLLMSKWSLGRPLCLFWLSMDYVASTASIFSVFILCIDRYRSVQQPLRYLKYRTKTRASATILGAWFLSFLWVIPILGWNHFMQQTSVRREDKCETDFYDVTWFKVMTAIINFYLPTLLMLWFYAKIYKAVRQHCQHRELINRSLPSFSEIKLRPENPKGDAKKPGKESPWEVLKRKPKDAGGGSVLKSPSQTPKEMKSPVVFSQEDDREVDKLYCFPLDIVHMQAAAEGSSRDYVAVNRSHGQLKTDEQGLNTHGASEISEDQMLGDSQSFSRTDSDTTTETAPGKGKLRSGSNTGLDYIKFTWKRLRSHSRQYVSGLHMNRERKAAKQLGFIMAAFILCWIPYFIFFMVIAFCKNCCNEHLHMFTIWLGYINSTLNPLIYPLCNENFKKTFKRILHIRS
T2 sequence (P08173 whole entry): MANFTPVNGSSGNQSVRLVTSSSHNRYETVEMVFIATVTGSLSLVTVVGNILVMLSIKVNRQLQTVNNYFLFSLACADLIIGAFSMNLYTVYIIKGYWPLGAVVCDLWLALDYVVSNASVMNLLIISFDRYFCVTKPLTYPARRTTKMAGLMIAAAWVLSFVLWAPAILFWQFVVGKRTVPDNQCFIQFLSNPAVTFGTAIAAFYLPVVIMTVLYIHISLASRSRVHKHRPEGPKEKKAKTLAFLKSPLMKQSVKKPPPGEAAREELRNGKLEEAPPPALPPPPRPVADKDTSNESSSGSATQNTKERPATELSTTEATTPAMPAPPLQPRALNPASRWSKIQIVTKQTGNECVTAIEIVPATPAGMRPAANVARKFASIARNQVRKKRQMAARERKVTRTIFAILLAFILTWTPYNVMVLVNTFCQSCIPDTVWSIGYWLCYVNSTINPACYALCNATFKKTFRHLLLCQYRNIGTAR

The inhibition is the drop in the measured response relative to a control, in per cent. One may read the Ki as the equilibrium dissociation constant of an inhibitor or competing ligand from its target. As a reminder, the half-life is the time needed for the level to fall by half in the phase considered. Turning to `COc1ccc(CN[C@@H]2CO[C@H](C(c3ccc(F)cc3)c3ccc(F)cc3)C[C@H]2O)cc1` [Compound D-473, (2S,4R,5R)-2-(bis(4-fluorophenyl)methyl)-5-((4-methoxybenzyl)amino)tetrahydro-2H-pyran-4-ol], the Kp at 2 h in data set [1] (male, Sprague-Dawley, brain and plasma, 2 h, read-out: Brain/plasma ratio) turned out to be 0.76. Besides, the Kp at 4 h in [1] (male, Sprague-Dawley, brain and plasma, 4 h, read-out: Brain/plasma ratio) was found to be 1.54. The Kp at 6 h in data set [1] (male, Sprague-Dawley, brain and plasma, 6 h, read-out: Brain/plasma ratio) came out at 1.22. In data set [1] (male, Sprague-Dawley, brain, 2 h), this molecule gave a concentration at 2 h of 264 ng/mL. Further, the concentration at 4 h in data set [1] (male, Sprague-Dawley, brain, 4 h, read-out: Concentration in the brain (peak)) was found to be 345 ng/mL. In addition, the “Concentration in the brain” value in [1] (6 h) was “slightly lower than observed at 2 h”. Moreover, the inhibition at 10 µM on Alpha1A is 23.6%; on M4 it was -16.7%; at D1 ([3H]SCH 23390, 10 µM, read-out: % Inhibition of Binding at 10 µM D-473) it was 62.2%; on H1, 2.8%; on Beta1, 24.6%; at 5HT2b (10 µM, read-out: % Inhibition of Binding at 10 µM D-473) it was 70.8%. Further, the inhibition at 10 µM was 16.3% at 5HT2a, 15% at M1, 19.5% on 5HT5a and 16.6% at Alpha1B. In addition, the Ki was 39 nM and 39.7 nM at hNET (NET uptake, Ki, nM [3H]DA, HEK293 cells expressing hNET, average±S.E.M., 3 to 10 determinations); 630 nM on D1 ([3H]SCH 23390, secondary assay, read-out: Ki for D-473); 597 nM at 5HT2b (secondary assay, read-out: Ki for D-473). The “Activity at NET relative to DAT” value on hNET (hNET vs hDAT uptake inhibition) is “roughly two fold more potent”. Moreover, the Cmax in data set [2] (3% HPßCD in water, read-out: Average maximum plasma concentration, Cmax) turned out to be 404 ± 223 ng/mL. Also, the half-life in [2] (read-out: Estimated average half-life (converted)) was 6.39 ± 0.106 h.
